The target of this test is T1, Human CYP2C8 (Homo sapiens, UniProt P10632).
T1 construct: E. coli-expressed liver microsome CYP2C8 (Cypex, 30 μmol/L); purchased Cypex; host or cells: E. coli
T1 sequence (P10632 1-490): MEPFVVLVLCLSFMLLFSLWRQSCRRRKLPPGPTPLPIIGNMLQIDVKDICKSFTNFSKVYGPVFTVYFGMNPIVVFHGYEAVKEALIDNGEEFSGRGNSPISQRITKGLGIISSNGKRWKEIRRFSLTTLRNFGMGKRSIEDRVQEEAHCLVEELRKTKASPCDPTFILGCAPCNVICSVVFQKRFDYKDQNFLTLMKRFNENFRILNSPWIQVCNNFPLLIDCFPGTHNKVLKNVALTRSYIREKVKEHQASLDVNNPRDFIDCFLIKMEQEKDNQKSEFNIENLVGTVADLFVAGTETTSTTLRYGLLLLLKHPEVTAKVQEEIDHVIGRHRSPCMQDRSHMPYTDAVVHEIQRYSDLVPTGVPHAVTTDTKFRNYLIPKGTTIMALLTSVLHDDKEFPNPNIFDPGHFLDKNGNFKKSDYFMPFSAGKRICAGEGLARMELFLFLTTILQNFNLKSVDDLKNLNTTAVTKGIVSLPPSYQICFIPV
The test can be described thus: Inhibitory activity of drug-metabolizing enzyme (human CYP2C8 inhibition effect). The test is classed as in vitro ADME. To be noted: E. coli-expressed CYP2C8, substrate Luciferin-ME, from inhibition rates at 1 and 10 μmol/L. As to the method:
Biological Example 4: Measurement of Inhibitory Activity of Drug-Metabolizing Enzyme (Human CYP2C8 Inhibition Effect)
The reaction was carried out in a 384-well plate. As the positive control substance (CYP2C8: quercetin), a solution, which had been adjusted with DMSO to have 300 times higher concentration than the final concentration (CYP2C8: 22.5 and 225 μmol/L) and been 75-fold diluted with purified water containing 2.7% acetonitrile, was prepared (CYP2C8: 0.3 and 3 μmol/L). The test compounds were prepared to have a concentration of […] with DMSO, and then 75-fold diluted with purified water containing 2.7% acetonitrile to be 4 and 40 μmol/L. Then, a reaction mixture solution was prepared by addition of a potassium phosphate buffer (pH 7.4), magnesium chloride ([…]), substrate (CYP2C8: Luciferin-ME, 150 μmol/L), and E. coli-expressed liver microsome CYP2C8 (Cypex, 30 μmol/L) (the numerical values are final concentrations). The reaction was started by addition of 8 μL of this reaction mixture, 4 μL each of the test compound and the positive control solution which had been prepared as described above, and 4 μL of NADPH production system solution (5.2 mM NADP, 13.2 mM glucose-6-phosphate, 1.6 U/mL glucose-6-phosphate dehydrogenase) and incubation was carried out at 37° C. for 30 min. Thereafter, 16 μL of luciferase solution was added to stop the reaction and to allow luciferin to emit light, and the luminescence intensity of the reaction solution was measured. The inhibition rate is a reduction rate (inhibition rate) of the luminescence intensity when compared with the control in which the reaction was carried out by the addition of DMSO in place of the test compound solution. The inhibition rate was calculated from the following mathematical formula. Inhibition rate (%)=100−{(luminescence intensity of test compound−background luminescence intensity)/(luminescence intensity of control−background luminescence intensity)×100} [Math. 3]
The IC50 value was defined to be <1 μM when the inhibition rate at 1 μmol/L was not less than 50%; and >10 μM when the inhibition rate at 10 μmol/L was not more than 50%. The range between the above-mentioned range (not more than 50% at 1 μmol/L and not less than 50% at 10 μmol/L) was calculated using the following mathematical formula: IC50=(50−b)/a [Math.4] wherein a and b are the slope and intercept of the linear regression line: y=ax+b that passes through the two points: the concentration and the inhibition rate at 1 μmol/L and the concentration and the inhibition rate at 10 μmol/L.
The IC50 values of the comparative compounds and compounds of the present invention were measured using the measurement method described above.

Structures are written as SMILES.

This passage reports IC50 results from patent US10676462B2, “Quinoline derivative” (ONO PHARMACEUTICAL CO., LTD., priority 2013, dated 2020).

As usually defined, the IC50 is the point on the concentration scale where inhibition reaches its midpoint. A lower IC50 goes with greater potency.

Regarding `COc1cc2nccc(Oc3ccc(NC(=O)c4cc5c(n(-c6ccccc6)c4=O)CCCC5=O)c(C)c3)c2cc1OC` [Example 23(2), N-{4-[(6,7-dimethoxy-4-quinolinyl)oxy]-2-methylphenyl}-2,5-dioxo-1-phenyl-1,2,5,6,7,8-hexahydro-3-quinolinecarboxamide], the IC50 was greater than 10 µM.

As to `COc1cc2nccc(Oc3ccc(NC(=O)c4cc5c(n(-c6ccccc6)c4=O)CC(C)(C)CC5=O)nc3)c2cc1OC` [Example 5(1), N-{5-[(6,7-dimethoxy-4-quinolinyl)oxy]-2-pyridinyl}-7,7-dimethyl-2,5-dioxo-1-phenyl-1,2,5,6,7,8-hexahydro-3-quinolinecarboxamide], the half-maximal inhibitory concentration (IC50) is greater than 10 µM.

For the molecule `COc1cc2nccc(Oc3ccc(NC(=O)c4cc5c(n(-c6ccccc6)c4=O)CCCC5=O)nc3)c2cc1OC` [Example 5, N-{5-[(6,7-dimethoxy-4-quinolinyl)oxy]-2-pyridinyl}-2,5-dioxo-1-phenyl-1,2,5,6,7,8-hexahydro-3-quinolinecarboxamide], the IC50 was greater than 10 µM.

In turn, `O=C1CCCc2c1cc(C(=O)Nc1ccc(Oc3ccnc4cc(OCCCN5CCOCC5)ccc34)cn1)c(=O)n2-c1ccccc1` [Example 17(2), N-[5-({7-[3-(4-morpholinyl)propoxy]-4-quinolinyl}oxy)-2-pyridinyl]2,5-dioxo-1-phenyl-1,2,5,6,7,8-hexahydro-3-quinolinecarboxamide] displayed a 50% inhibitory concentration (IC50) greater than 10 µM.
